Experimental findings from ChEMBL document CHEMBL1201862, “PubChem BioAssay data set” (2004) are described below.

Test systems include UACC-257; COLO 205; MDA-N; OVCAR-3; K562; KM12; Hs-578T; HCT-116; HOP-62; NCI-H522; BT-549; SK-OV-3; MOLT-4; SF-539; SK-MEL-5; SNB-75; DU-145; RXF 393; ACHN.
Holding throughout (experiment): inhibition of tumour cell growth, NCI panel, 48 h

Molecules are shown by their SMILES.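 Results reflect a 48-hour exposure of cells in 96-well plates to compound at five concentrations. GI50: concentration for 50% inhibition of growth.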 The source made the active and inactive calls. No stated cut-off is given here; in the data, active = GI50 up to about 1.1 µM and inactive = higher.

Turning to `CC(C)c1nc(Cl)nc(Cl)c1Cl`, the GI50 with UACC-257 was 0.256 µM (active); in the assay with COLO 205, 0.239 µM (active); in the assay with MDA-N, 0.679 µM (active); in the assay on OVCAR-3, 0.142 µM (active); in the assay on K562 it was < 0.01 µM (active); in the assay on KM12, 0.293 µM (active). The GI50 in the assay with Hs-578T is 0.302 µM (active); in the assay with HCT-116, 0.0344 µM (active); with HOP-62, 0.794 µM (active); in the assay on NCI-H522 it was 0.303 µM (active); with BT-549, 0.0113 µM (active); in the assay with SK-OV-3 it was 4.58 µM (inactive). In addition, the GI50 is 0.0284 µM (active) in the assay with MOLT-4; 0.515 µM (active) in the assay with SF-539; 0.861 µM (active) in the assay on SK-MEL-5; 5.11 µM (inactive) with SNB-75; 3.12 µM (inactive) with DU-145; 0.365 µM (active) in the assay on RXF 393. The GI50 with ACHN is 0.264 µM (active).
`NS(=O)(=O)c1cc(C(=O)O)c(O)c2ccccc12`: the GI50 in the assay with UACC-257, with COLO 205, in the assay on MDA-N, in the assay on OVCAR-3, in the assay on K562 and in the assay with KM12 was > 100 µM (inactive) throughout. Besides, the GI50 with Hs-578T is 49.7 µM (inactive); in the assay with HCT-116 it was > 100 µM (inactive); in the assay on HOP-62, > 100 µM (inactive); in the assay with NCI-H522, > 100 µM (inactive); in the assay with BT-549, > 100 µM (inactive); with SK-OV-3, > 100 µM (inactive). Moreover, the GI50 was > 100 µM (inactive) in the assay on MOLT-4; > 100 µM (inactive) with SF-539; > 100 µM (inactive) in the assay with SK-MEL-5; 82.6 µM (inactive) with SNB-75; > 100 µM (inactive) with DU-145; > 100 µM (inactive) in the assay on RXF 393. Further, in the assay on ACHN, the GI50 is > 100 µM (inactive).
`c1ccc(SCCc2ccncc2)cc1`: the GI50 was > 100 µM (inactive) in the assay with UACC-257; > 100 µM (inactive) in the assay on COLO 205; > 100 µM (inactive) with MDA-N; 40.6 µM (inactive) in the assay on OVCAR-3; 49.5 µM (inactive) in the assay on K562; 78.7 µM (inactive) in the assay with KM12. Also, the GI50 in the assay on Hs-578T was > 100 µM (inactive); in the assay on HCT-116, > 100 µM (inactive); in the assay with HOP-62, > 100 µM (inactive); with NCI-H522, 31 µM (inactive); in the assay on BT-549, > 100 µM (inactive); in the assay on SK-OV-3, > 100 µM (inactive). In addition, the GI50 in the assay on MOLT-4 is 17.7 µM (inactive); with SF-539, > 100 µM (inactive); with SK-MEL-5, 35.8 µM (inactive); in the assay with SNB-75 it was > 100 µM (inactive); with DU-145, > 100 µM (inactive); with RXF 393, > 100 µM (inactive). Moreover, in the assay on ACHN, the GI50 is > 100 µM (inactive).
Take `Cc1ccc(S(=O)(=O)N2CC(CCN)c3ccccc32)cc1` (stereo not drawn): the GI50 with UACC-257 is 4.78 µM (inactive); in the assay with COLO 205, 4.06 µM (inactive); in the assay on MDA-N, 0.883 µM (active); in the assay with OVCAR-3 it was 3.36 µM (inactive); in the assay on K562, 4.35 µM (inactive); in the assay with KM12, 6.03 µM (inactive). For the same compound, the GI50 was 5.62 µM (inactive) in the assay with Hs-578T; 2.27 µM (inactive) in the assay on HCT-116; 6.78 µM (inactive) in the assay on HOP-62; 5.87 µM (inactive) with NCI-H522; 5.69 µM (inactive) in the assay with BT-549; 5.5 µM (inactive) in the assay with SK-OV-3. Moreover, the GI50 in the assay with MOLT-4 is 28 µM (inactive); in the assay with SF-539, 3.17 µM (inactive); with SK-MEL-5 it was 2.58 µM (inactive); with SNB-75 it was 5.46 µM (inactive); in the assay with DU-145, 3.87 µM (inactive); with RXF 393, 2.74 µM (inactive). For the same compound, the GI50 in the assay on ACHN is 8.41 µM (inactive).
With `Cc1nc(-c2cc3ccccc3oc2=O)cs1`, the GI50 in the assay with UACC-257 was > 100 µM (inactive); in the assay on COLO 205 it was > 100 µM (inactive); in the assay on MDA-N it was > 100 µM (inactive); with K562, > 100 µM (inactive); in the assay on KM12, > 100 µM (inactive); in the assay on Hs-578T it was 18.4 µM (inactive). Further, the GI50 in the assay on HCT-116 was 96.2 µM (inactive); in the assay on HOP-62, 16.6 µM (inactive); in the assay with NCI-H522, 17 µM (inactive); with BT-549, 15.9 µM (inactive); in the assay with SK-OV-3, > 100 µM (inactive); in the assay on MOLT-4, > 100 µM (inactive). Besides, the GI50 in the assay on SF-539 is 70 µM (inactive); with SK-MEL-5, > 100 µM (inactive); with SNB-75 it was < 0.01 µM (active); in the assay with DU-145, > 100 µM (inactive); in the assay with RXF 393, 38.2 µM (inactive); in the assay with ACHN, 52.5 µM (inactive).
Turning to `O=[N+]([O-])c1ccc(C(Nc2ccccc2)P(c2ccccc2)c2ccccc2)cc1` (stereo not drawn), the GI50 in the assay with UACC-257 was > 100 µM (inactive); in the assay on COLO 205 it was > 100 µM (inactive); in the assay with MDA-N it was > 100 µM (inactive); in the assay on K562 it was 22.5 µM (inactive); in the assay with KM12 it was > 100 µM (inactive); in the assay with Hs-578T, > 100 µM (inactive). For the same compound, the GI50 in the assay on HCT-116 was 8.81 µM (inactive); with HOP-62 it was 67.3 µM (inactive); in the assay with NCI-H522, > 100 µM (inactive); with BT-549, > 100 µM (inactive); with SK-OV-3, > 100 µM (inactive); in the assay on MOLT-4 it was 24.1 µM (inactive). For the same compound, the GI50 with SF-539, in the assay on SK-MEL-5, in the assay with SNB-75, with DU-145, in the assay on RXF 393 and with ACHN was > 100 µM (inactive) in each case.
As for `Cc1cn(C2CC(N=[N+]=[N-])C(COP(=O)(O)OCC3OC(n4cc(F)c(=O)[nH]c4=O)CC3O)O2)c(=O)[nH]c1=O` (stereo not drawn), the GI50 in the assay on UACC-257 was 96.6 µM (inactive); in the assay with COLO 205 it was > 100 µM (inactive); in the assay on MDA-N it was 38.3 µM (inactive); with OVCAR-3, > 100 µM (inactive); with KM12, > 26.4 µM (inactive); in the assay with Hs-578T it was > 100 µM (inactive). Besides, the GI50 is 4.21 µM (inactive) in the assay on HCT-116; 0.348 µM (active) with HOP-62; > 100 µM (inactive) in the assay on NCI-H522; > 100 µM (inactive) in the assay with BT-549; > 100 µM (inactive) in the assay with SK-OV-3; 2.22 µM (inactive) in the assay with MOLT-4. Further, the GI50 was 0.0438 µM (active) in the assay with SF-539; 12.2 µM (inactive) in the assay on SK-MEL-5; 9.06 µM (inactive) in the assay with SNB-75; 4.1 µM (inactive) in the assay on DU-145; > 100 µM (inactive) in the assay on RXF 393; 0.63 µM (active) with ACHN.
Take `CC(C)(Cc1ccccc1)NC1=NCCO1`: the GI50 in the assay with UACC-257, with COLO 205, with MDA-N, with OVCAR-3, in the assay with K562 and with KM12 was > 100 µM (inactive) in each case. Also, the GI50 in the assay with Hs-578T was 76.4 µM (inactive); in the assay with HCT-116, > 100 µM (inactive); with NCI-H522 it was > 100 µM (inactive); in the assay on BT-549 it was > 100 µM (inactive); in the assay with SK-OV-3, > 100 µM (inactive); with MOLT-4, > 100 µM (inactive). For the same compound, the GI50 in the assay on SF-539 is > 100 µM (inactive); in the assay on SK-MEL-5, > 100 µM (inactive); in the assay on SNB-75, 35.2 µM (inactive); in the assay on DU-145, > 100 µM (inactive); in the assay on RXF 393 it was > 100 µM (inactive); in the assay on ACHN, > 100 µM (inactive).
